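96-well plates; 48 h exposure; 5 concentrations. Endpoints by linear interpolation between flanking doses. Not reached: highest tested concentration assigned. GI50 = concentration required for 50% inhibition of growth.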 The source made the active and inactive calls. Cut-off read from the data, not from the text of the source: active = GI50 up to about 1.1 µM and inactive = higher.
Assays:
Assay in all cases: DTP human tumour cell line panel, 48 h
CCRF-CEM = tested on: CCRF-CEM
LOX IMVI = tested on: LOX IMVI
RPMI-8226 = tested on: RPMI-8226
HCT-116 = tested on: HCT-116
MOLT-4 = tested on: MOLT-4
SK-MEL-28 = tested on: SK-MEL-28
TK-10 = tested on: TK-10
UACC-257 = tested on: UACC-257
SK-MEL-5 = tested on: SK-MEL-5
T47D = tested on: T47D
SK-MEL-2 = tested on: SK-MEL-2
786-0 = tested on: 786-0
UO-31 = tested on: UO-31
SF-539 = tested on: SF-539
A549 = tested on: A549
SW-620 = tested on: SW-620
OVCAR-8 = tested on: OVCAR-8
NCI/ADR-RES = tested on: NCI/ADR-RES
OVCAR-4 = tested on: OVCAR-4
SK-OV-3 = tested on: SK-OV-3

Compound	GI50 (CCRF-CEM)	GI50 (LOX IMVI)	GI50 (RPMI-8226)	GI50 (HCT-116)	GI50 (MOLT-4)	GI50 (SK-MEL-28)	GI50 (TK-10)	GI50 (UACC-257)	GI50 (SK-MEL-5)	GI50 (T47D)	GI50 (SK-MEL-2)	GI50 (786-0)	GI50 (UO-31)	GI50 (SF-539)	GI50 (A549)	GI50 (SW-620)	GI50 (OVCAR-8)	GI50 (NCI/ADR-RES)	GI50 (OVCAR-4)	GI50 (SK-OV-3)
CN(C)CCn1c(=O)c2ccc3c4c(nn3CCN(C)C)c3cc(O)ccc3n(c1=O)c24	< 0.032 µM (active)	< 0.0306 µM (active)	0.0541 µM (active)	< 0.0225 µM (active)	< 0.01 µM (active)	0.548 µM (active)	0.117 µM (active)	0.308 µM (active)	0.319 µM (active)	0.378 µM (active)	0.131 µM (active)	< 0.01 µM (active)	0.0927 µM (active)	1.29 µM (inactive)	0.0325 µM (active)	0.0365 µM (active)	< 0.01 µM (active)	0.783 µM (active)		
Cc1ccc(N/C(SCc2ccccc2)=C(\C(Cl)=C(Cl)Cl)[N+](=O)[O-])c(C)c1	31 µM (inactive)		21.1 µM (inactive)	16.8 µM (inactive)	> 100 µM (inactive)	23.8 µM (inactive)		43.9 µM (inactive)		18.1 µM (inactive)	39.6 µM (inactive)	23.6 µM (inactive)	20 µM (inactive)	19.9 µM (inactive)	27.1 µM (inactive)	15.6 µM (inactive)	18.5 µM (inactive)	21.2 µM (inactive)	10.8 µM (inactive)	39.8 µM (inactive)
O=C1/C(=C\c2ccc(F)cc2)CCOc2c1ccc1ccccc21	5.82 µM (inactive)		3.3 µM (inactive)	3.49 µM (inactive)	7.67 µM (inactive)	23.3 µM (inactive)	24.4 µM (inactive)	19.5 µM (inactive)	21.2 µM (inactive)	41.6 µM (inactive)	45.7 µM (inactive)	23 µM (inactive)	> 55.2 µM (inactive)	21.9 µM (inactive)	23.4 µM (inactive)	14.4 µM (inactive)	12.7 µM (inactive)	16.3 µM (inactive)	15.3 µM (inactive)	36.6 µM (inactive)
Oc1ccc(-c2csc(N/N=C3\NC/C(=C/c4ccc5c(c4)OCO5)S3)n2)cc1O		11.6 µM (inactive)		29.3 µM (inactive)	5.45 µM (inactive)	11.9 µM (inactive)	21.7 µM (inactive)	14.6 µM (inactive)	9.82 µM (inactive)	31.5 µM (inactive)	10 µM (inactive)	30.6 µM (inactive)	11.2 µM (inactive)	3.18 µM (inactive)	45.5 µM (inactive)	35.4 µM (inactive)	29.2 µM (inactive)	42 µM (inactive)	32.9 µM (inactive)	> 100 µM (inactive)
Cc1c2ccccc2cc2nc3ccccc3n12	> 10 µM (inactive)		> 10 µM (inactive)	> 10 µM (inactive)	> 10 µM (inactive)	> 10 µM (inactive)	0.00668 µM (active)	> 10 µM (inactive)	> 10 µM (inactive)	> 10 µM (inactive)	> 10 µM (inactive)	> 10 µM (inactive)		> 10 µM (inactive)	> 10 µM (inactive)	> 10 µM (inactive)	> 10 µM (inactive)	> 10 µM (inactive)	> 10 µM (inactive)	> 10 µM (inactive)
COc1ccc(C(=O)c2[nH]c(Nc3ccc(Cl)cc3)c(C(=S)Nc3ccccc3)c2N)cc1	> 100 µM (inactive)	> 100 µM (inactive)		60.7 µM (inactive)	> 100 µM (inactive)	22.8 µM (inactive)	> 100 µM (inactive)	> 100 µM (inactive)	> 100 µM (inactive)	> 100 µM (inactive)	> 100 µM (inactive)	> 100 µM (inactive)	> 100 µM (inactive)	> 100 µM (inactive)	> 100 µM (inactive)	> 100 µM (inactive)	> 100 µM (inactive)	> 100 µM (inactive)	23.8 µM (inactive)	> 100 µM (inactive)
COc1ccc(NC(=O)NNS(=O)(=O)c2ccc(C)cc2)cc1	> 100 µM (inactive)		> 100 µM (inactive)	> 100 µM (inactive)	> 100 µM (inactive)	> 100 µM (inactive)	> 100 µM (inactive)	> 100 µM (inactive)	74 µM (inactive)	> 100 µM (inactive)	> 100 µM (inactive)	0.792 µM (active)	> 100 µM (inactive)	> 100 µM (inactive)	> 100 µM (inactive)	> 100 µM (inactive)	> 100 µM (inactive)	> 100 µM (inactive)	25.1 µM (inactive)	> 100 µM (inactive)
C=C(C)C1Cc2c(cc3c(c2O)c(=O)c2ccccc2n3C)O1 (configuration not stated)	0.724 µM (active)		2.06 µM (inactive)	2.03 µM (inactive)	0.372 µM (active)	10.7 µM (inactive)	13.9 µM (inactive)	15.8 µM (inactive)	2.38 µM (inactive)	6.67 µM (inactive)	5.42 µM (inactive)	1.51 µM (inactive)	1.84 µM (inactive)	2.4 µM (inactive)	6.62 µM (inactive)	1.81 µM (inactive)	1.84 µM (inactive)	2.3 µM (inactive)	6.81 µM (inactive)	4.97 µM (inactive)
CCCCCCCCCCCCC(O)C1CCC(C(O)CCCCC(O)CCCCCC2CC(CC(C)=O)C(=O)O2)O1 (configuration not stated)	1.43 µM (inactive)	1.4 µM (inactive)		0.175 µM (active)		4.7 µM (inactive)	4.99 µM (inactive)	0.0204 µM (active)	0.0931 µM (active)	2.77 µM (inactive)	4.95 µM (inactive)	6.79 µM (inactive)	2.27 µM (inactive)	3.9 µM (inactive)	3.21 µM (inactive)	5.87 µM (inactive)	3.44 µM (inactive)	0.29 µM (active)	1.44 µM (inactive)	11.9 µM (inactive)
COC(=O)/C1=C/c2c([nH]c3ccccc23)/C(C(=O)OC)=C\c2c1[nH]c1ccccc21 [CAULERPIN]		18.7 µM (inactive)		14.2 µM (inactive)			32.6 µM (inactive)	> 50 µM (inactive)	28.8 µM (inactive)	20.2 µM (inactive)	14.4 µM (inactive)	11.2 µM (inactive)	7.6 µM (inactive)	33.5 µM (inactive)	33.3 µM (inactive)	34.4 µM (inactive)	26.6 µM (inactive)	> 50 µM (inactive)		> 50 µM (inactive)
O=c1c(O)c(-c2ccc(O)cc2O)oc2cc(O)cc(O)c12 [MORIN]	> 100 µM (inactive)	> 100 µM (inactive)		86.1 µM (inactive)		> 100 µM (inactive)	33.4 µM (inactive)	> 100 µM (inactive)	> 100 µM (inactive)	> 100 µM (inactive)	> 100 µM (inactive)	> 100 µM (inactive)	> 100 µM (inactive)	> 100 µM (inactive)	> 100 µM (inactive)	> 100 µM (inactive)	> 100 µM (inactive)	> 100 µM (inactive)	> 100 µM (inactive)	

Source: ChEMBL document CHEMBL1201862, “PubChem BioAssay data set” (2004)
